Results reported in the supplement of paper PMC5412046.
Counter-ions that a name gives are not always drawn.

Columns and labels:
SB.mhdgc-1 [1] = test: area under the dose-response curve of % viability (trapezoidal, 11 doses) (% viability x log10 concentration); higher = less cytotoxic; conditions: SB.mhdgc-1 (hereditary c.1380delA CDH1 gastric cancer)
Outline: (§1)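 Patient-derived gastric cancer cells, hereditary or sporadic, were plated at 500 cells in 5 μL medium per well of a 1536-well plate and given 23 nL of compound in DMSO by pintool across 11 threefold dilutions. The top concentration was recorded for each compound. After 48 h, CellTiter-Glo was added for 30 min at room temperature and luminescence was read on a ViewLux. Values are viability normalised to DMSO, taken either at the highest concentration or as trapezoidal area under the curve.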

SB.msgc-1 [2] = test: as above; conditions: SB.msgc-1 (sporadic gastric cancer)
Outline: as §1

SB.mhdgc-1 [3] = test: viability at highest tested concentration (MAXR) relative to DMSO; higher = less cytotoxic; conditions: SB.mhdgc-1 (hereditary c.1380delA CDH1 gastric cancer)
Outline: as §1

SB.msgc-1 [4] = test: as above; conditions: SB.msgc-1 (sporadic gastric cancer)
Outline: as §1

SMILES | area under the dose-response curve (SB.mhdgc-1 [1]) | area under the dose-response curve (SB.msgc-1 [2]) | viability (SB.mhdgc-1 [3]) [%] | viability (SB.msgc-1 [4]) [%]
CC(C)[C@@H](N(CCCN)C(=O)C1=CC=C(C)C=C1)C/2=C(\CC3=CC=CC=C3)C(=O)C4=C(O2)C=C(Cl)C=C4 (top concentration 46.0829 µM) | 290 | 196 | 3.56 | 18
Nc1ncnc2c1ncn2[C@@H]1O[C@@H](CO)[C@H](O)[C@@H]1O [Vidarabine] (top concentration 34.4879 µM) | 552 | 586 | 89.7 | 109
O=NN(CCCl)C(=O)NC1CCCCC1 [Lomustine] (top concentration 46.0829 µM) | 551 | 513 | 125 | 70.4
FC1=CC=C(C=C1)N2/C=C\C=C(C(=O)NC3=CC=C(OC4=C5C=C[NH]C5=NC=C4)C(=C3)F)/C2=O [BMS-2] (top concentration 46.0829 µM) | 521 | 485 | 2.79 | 39.6
CC(C)(Sc1ccc(CCN(CCCCC2CCCCC2)C(=O)NC2CCCCC2)cc1)C(=O)O [GW-7647] (top concentration 46.0829 µM) | 490 | 508 | 78.3 | 70.9
COc1ccc(OC)c(-c2nnc3ccc(-c4ccc(OC)c(O[C@@H]5CCOC5)c4)nn23)c1 (top concentration 46.0829 µM) | 524 | 481 | 4.95 | 3.03
COc1cc2nc(-c3ccc(N4CCN(C)CC4)cc3)nc(NCCN3CCOCC3)c2cc1OC (top concentration 46.0829 µM) | 397 | 320 | 1.59 | 2.22
CCOC(=O)c1c(CSc2ccccc2)n(C)c2cc(Br)c(O)c(CN(C)C)c12 [Arbidol] (top concentration 46.0829 µM) | 618 | 501 | 49.5 | 37.5
CNNCc1ccc(C(=O)NC(C)C)cc1 [Procarbazine hydrochloride] (top concentration 46.0829 µM) | 517 | 515 | 99.5 | 61.7
C=CC(=O)Nc1cc(NC(=O)c2ccc(C)c(NC(=O)c3ccno3)c2)cc(C(F)(F)F)c1 (top concentration 46.0829 µM) | 521 | 504 | 4.49 | 36.4
CN1CCc2c(c3ccccc3n2Cc2ccc(C(=O)NO)cc2)C1 [Tubastatin A] (top concentration 46.0829 µM) | 384 | 430 | 1.43 | 3.16
OC[C@H]1OCC(O1)[N@@]2C=CC(N)=NC2=O (stereo not given in full) [Troxacitabine] (top concentration 46.0829 µM) | 538 | 507 | 103 | 109
CN(CCOc1ccc(CC2SC(=O)NC2=O)cc1)c1ccccn1 (stereo not given) [Rosiglitazone] (top concentration 46.0829 µM) | 586 | 467 | 109 | 69.1
COc1cc(N[S+](=O)([O-])c2ccc(N)cc2)nc(OC)n1 [Sulphadimethoxine] (top concentration 46.0829 µM) | 490 | 585 | 100 | 111
CC/1=C(\CCN2CCC(CC2)C3=NOC4=C3C=CC(=C4)F)C(=O)N/5CCCCC5=N1 (top concentration 46.0829 µM) | 402 | 506 | 65.9 | 81.5
COc1cc2c(cc1-c1c(C)noc1C)ncc1[nH]c(=O)n([C@H](C)c3ccccn3)c12 [I-BET151] (top concentration 46.0829 µM) | 576 | 402 | 40.3 | 5.8
O=C(NCc1ccncc1)C12C[C@H]3C[C@@H](C1)CC(c1ccc(Cl)cc1)(C3)C2 (top concentration 46.0829 µM) | 472 | 469 | 41.2 | 41.1
CCC[C@@H](NC(=O)[C@@H]1[C@H]2CCC[C@H]2CN1C(=O)[C@@H](NC(=O)[C@@H](NC(=O)c1cnccn1)C1CCCCC1)C(C)(C)C)C(=O)C(=O)NC1CC1 [Telaprevir] (top concentration 46.0829 µM) | 539 | 544 | 85.2 | 71.7
O=C(Nc1nnc(-c2ccco2)o1)c1cc(-c2ccccc2)nc2ccccc12 [STX-0119] (top concentration 46.0829 µM) | 428 | 474 | 50.2 | 44.1
CO[C@H]1/C=C/O[C@@]2(C)Oc3c(C)c(O)c4c(O)c(c(/C=N/N5CCN(C)CC5)c(O)c4c3C2=O)NC(=O)/C(C)=C\C=C\[C@H](C)[C@H](O)[C@@H](C)[C@@H](O)[C@@H](C)[C@H](OC(C)=O)[C@@H]1C [Rifampicin] (top concentration 11.0599 µM) | 598 | 567 | 111 | 65.9
CC(=O)OCC(=O)[C@@]12\N=C(C)/O[C@@H]1C[C@H]3[C@@H]4CCC/5=C/C(=O)/C=C\[C@]5(C)[C@H]4[C@@H](O)C[C@]23C [Deflazacort] (top concentration 46.0829 µM) | 489 | 552 | 97.3 | 105
OC[C@H]1OC(O)C[C@@H](O)[C@@H]1O (stereo not given in full) [2-Deoxyglucose] (top concentration 46.0829 µM) | 520 | 549 | 117 | 117
C[C@H](CCC(=O)O)[C@H]1CCC2C3C[C@H](O)[C@@H]4C[C@H](O)CC[C@]4(C)C3CC[C@@]21C (stereo not given in full) [Hyodeoxycholic acid (HDCA)] (top concentration 46.0829 µM) | 498 | 525 | 105 | 98.3

SMILES | area under the dose-response curve (SB.mhdgc-1 [1]) | area under the dose-response curve (SB.msgc-1 [2]) | viability (SB.mhdgc-1 [3]) [%] | viability (SB.msgc-1 [4]) [%]
O=C1C[C@@H](c2ccc(O)cc2)Oc2cc(O)cc(O)c21 [Naringenin] (top concentration 46.0829 µM) | 572 | 520 | 112 | 113
CC(=O)OCC(=O)[C@@]1(O)CC[C@H]2[C@@H]3CCC/4=C/C(=O)CC[C@]4(C)[C@H]3C(=O)C[C@]12C [Cortisone acetate] (top concentration 46.0829 µM) | 493 | 560 | 101 | 106
C[C@@H]1O[C@@H](O[C@H]\2CC[C@]\3(C)[C@@H]4CC[C@]5(C)[C@@H](CC[C@@]5(O)[C@H]4CCC3=C2)C/6=C/OC(=O)/C=C6)[C@H](O)[C@H](O)[C@@H]1O [Proscillaridin] (top concentration 46.0829 µM) | 238 | 314 | 15.5 | 47
CC(C)C[C@@H](C=O)NC(=O)[C@H](CC(C)C)NC(=O)[C@H](CC(C)C)NC(=O)OCc1ccccc1 [MG-132] (top concentration 46.0829 µM) | 330 | 292 | 3.2 | 3.51
O=C(O)CCCc1c[nH]c2ccccc12 [3-indolebutyric acid] (top concentration 46.0829 µM) | 544 | 539 | 126 | 87.7
CCC[C@H]1C[C@H](C(=O)N[C@@H]([C@@H]2O[C@@H](SC)[C@@H](O)[C@@H](O)[C@H]2O)[C@H](C)Cl)N(C)C1 [Clindamycin hydrochloride] (top concentration 46.0829 µM) | 584 | 538 | 134 | 115
CC1(C)O[C@@H]2C[C@H]3[C@@H]4C[C@H](F)C5=CC(=O)C=C[C@]5(C)[C@@]4(F)[C@@H](O)C[C@]3(C)[C@]2(C(=O)CO)O1 [Fluocinolone acetonide] (top concentration 46.0829 µM) | 454 | 558 | 48.3 | 67.3
CNC[C@H](O)c1ccc(O)c(O)c1 [Epinephrine] (top concentration 92.1659 µM) | 484 | 514 | 20.7 | 78.5
CNC1CCC(N(Cc2cccc(-c3ccncc3)c2)C(=O)c2sc3ccccc3c2Cl)CC1 (stereo not given) [SAG] (top concentration 46.0829 µM) | 470 | 482 | 2.98 | 50.9
C=C1C[C@@]2(O)O[C@@]3(C[C@H]2C(C)C)[C@@H](C)CC[C@@H]13 [Curcumol] (top concentration 46.0829 µM) | 587 | 556 | 104 | 120
CCc1ccc(C(=O)Nc2cc(CN3CCN(C)CC3)cc(C(F)(F)F)c2)cc1C#Cc1cnc2ccnn2c1 [PRP003-013] (top concentration 46.0829 µM) | 421 | 498 | 3.86 | 0.984
Clc1ccccc1C(c1ccccc1)(c1ccccc1)n1cccn1 [TRAM-34] (top concentration 46.0829 µM) | 513 | 441 | 66.9 | 39.8
O=P1(NCCCl)OCCCN1CCCl (stereo not given) [Ifomide] (top concentration 46.0829 µM) | 350 | 427 | 48.3 | 39
CCCCc1oc2ccc(NS(C)(=O)=O)cc2c1C(=O)c1ccc(OCCCN(CCCC)CCCC)cc1 [Dronedarone] (top concentration 46.0829 µM) | 476 | 512 | 3.4 | 2.88
CC1=CC=CC=C1N2\C(=N/C3=C(C(=CC=C3)C)C2=O)C[N]4C=NC5=C4N=CN=C5N (top concentration 46.0829 µM) | 360 | 426 | 27.7 | 70.7
COc1cc(NCc2ccc3nc(N)nc(N)c3c2C)cc(OC)c1OC [Trimetrexate] (top concentration 46.0829 µM) | 345 | 302 | 18.7 | 12.2
CC(C)(C)OC(=O)CN(Cc1ccc(Cl)cc1)Cc1ccc([N+](=O)[O-])s1 [GSK-4112] (top concentration 46.0829 µM) | 515 | 399 | 76.5 | 45.7
OCc1ccc(-c2ccc(-c3ccc(CO)s3)o2)s1 [RITA] (top concentration 46.0829 µM) | 371 | 495 | 0.154 | 42
CC(C)n1cnc2c(NCCCCCCNC(=O)OC(C)(C)C)nc(NCCO)nc21 [CK59] (top concentration 46.0829 µM) | 441 | 472 | 46.2 | 41
Oc1nc(-c2ccc(C(F)(F)F)cc2)nc2c1CSCC2 [NVP-XAV-939] (top concentration 46.0829 µM) | 545 | 517 | 60.6 | 66.7
O=C(O)CC/C=C\CC[C@@H]1[C@@H](N2CCCCC2)[C@@H](O)C[C@@H]1OCc1ccc(-c2ccccc2)cc1 [Vapiprost hydrochloride] (top concentration 46.0829 µM) | 560 | 539 | 79.6 | 106
COc1cc(Nc2ncc(F)c(Nc3ccc4c(n3)NC(=O)C(C)(C)O4)n2)cc(OC)c1OC [R406] (top concentration 46.0829 µM) | 477 | 491 | 49.5 | 42
